In assay [1] the target is Casein kinase I isoform gamma-1 (Homo sapiens) (UniProt Q9HCP0).
Assay [2] addresses Serine/threonine-protein kinase 26 (Homo sapiens) (UniProt Q9P289).
The target of assay [3] is Ribosomal protein S6 kinase alpha-3 (Homo sapiens) (UniProt P51812).
For assay [4], the target named is Serine/threonine-protein kinase PAK 6 (Homo sapiens) (UniProt Q9NQU5).
Assay [5] concerns the target T1, Mitogen-activated protein kinase kinase kinase 5 (Homo sapiens) (UniProt Q99683).
T1 sequence (whole entry): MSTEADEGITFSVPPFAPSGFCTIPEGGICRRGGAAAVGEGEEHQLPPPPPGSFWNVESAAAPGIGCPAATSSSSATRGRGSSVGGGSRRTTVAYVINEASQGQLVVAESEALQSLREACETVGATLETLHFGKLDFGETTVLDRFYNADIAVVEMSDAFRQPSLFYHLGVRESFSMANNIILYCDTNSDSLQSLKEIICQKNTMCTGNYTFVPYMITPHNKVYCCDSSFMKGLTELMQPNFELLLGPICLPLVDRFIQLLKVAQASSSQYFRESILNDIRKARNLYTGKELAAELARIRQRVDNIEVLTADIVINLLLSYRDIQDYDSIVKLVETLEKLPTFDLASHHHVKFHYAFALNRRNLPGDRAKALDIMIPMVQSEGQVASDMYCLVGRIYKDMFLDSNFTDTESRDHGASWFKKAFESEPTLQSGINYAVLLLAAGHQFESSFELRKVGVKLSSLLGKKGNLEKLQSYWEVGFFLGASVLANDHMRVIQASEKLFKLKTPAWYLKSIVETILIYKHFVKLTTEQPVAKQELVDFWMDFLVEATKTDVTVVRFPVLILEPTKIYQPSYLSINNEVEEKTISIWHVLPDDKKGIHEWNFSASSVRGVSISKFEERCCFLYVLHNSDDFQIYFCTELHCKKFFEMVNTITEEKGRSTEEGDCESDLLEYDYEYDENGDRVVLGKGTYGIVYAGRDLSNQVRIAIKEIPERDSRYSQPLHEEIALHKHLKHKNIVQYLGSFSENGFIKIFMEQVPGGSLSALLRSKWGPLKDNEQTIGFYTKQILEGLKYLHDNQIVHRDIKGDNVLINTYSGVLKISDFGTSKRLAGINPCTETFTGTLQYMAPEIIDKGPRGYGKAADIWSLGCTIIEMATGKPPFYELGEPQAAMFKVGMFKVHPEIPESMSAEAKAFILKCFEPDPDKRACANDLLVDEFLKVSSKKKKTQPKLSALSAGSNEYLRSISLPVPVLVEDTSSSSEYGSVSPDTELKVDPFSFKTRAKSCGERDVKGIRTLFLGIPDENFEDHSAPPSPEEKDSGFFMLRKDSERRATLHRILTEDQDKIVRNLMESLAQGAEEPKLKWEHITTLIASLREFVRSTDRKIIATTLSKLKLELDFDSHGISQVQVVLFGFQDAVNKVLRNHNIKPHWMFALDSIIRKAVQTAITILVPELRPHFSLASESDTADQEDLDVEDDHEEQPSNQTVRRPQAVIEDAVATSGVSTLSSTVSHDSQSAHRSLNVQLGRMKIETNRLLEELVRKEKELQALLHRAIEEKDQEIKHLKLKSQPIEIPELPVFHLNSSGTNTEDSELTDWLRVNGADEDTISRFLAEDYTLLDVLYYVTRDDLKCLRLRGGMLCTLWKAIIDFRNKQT

Assay [6] deals with Mitogen-activated protein kinase 6 (Homo sapiens) (UniProt Q16659).
Assay [7] addresses Cyclin-dependent kinase 6 (Homo sapiens) (UniProt Q00534).
Assay [8] deals with TRAF2 and NCK-interacting protein kinase (Homo sapiens) (UniProt Q9UKE5).
The target in assay [9] is Cyclin-dependent kinase 2 (Homo sapiens, UniProt P24941).
Assay [10] addresses Calcium/calmodulin-dependent protein kinase type II subunit alpha (Homo sapiens) (UniProt Q9UQM7).
The target of assay [11] is Casein kinase I isoform gamma-2 (Homo sapiens) (UniProt P78368).
Assay [12] concerns the target Serine/threonine-protein kinase OSR1 (Homo sapiens) (UniProt O95747).
Assay [13] has as its target Calcium/calmodulin-dependent protein kinase type II subunit beta (Homo sapiens) (UniProt Q13554).
Assay [14] concerns the target Dual specificity protein kinase CLK2 (Homo sapiens) (UniProt P49760).
Assay [15] concerns the target Glycogen synthase kinase-3 beta (Homo sapiens, UniProt P49841).
Assay [16] has as its target Serine/threonine-protein kinase VRK2 (Homo sapiens) (UniProt Q86Y07).
Assay [17] addresses Serine/threonine-protein kinase pim-2 (Homo sapiens, UniProt Q9P1W9).
In assay [18] the target is Serine/threonine-protein kinase pim-1 (Homo sapiens) (UniProt P11309).
Assay [19] addresses T2, Serine/threonine-protein kinase 17A (Homo sapiens) (UniProt Q9UEE5).
T2 sequence (whole entry): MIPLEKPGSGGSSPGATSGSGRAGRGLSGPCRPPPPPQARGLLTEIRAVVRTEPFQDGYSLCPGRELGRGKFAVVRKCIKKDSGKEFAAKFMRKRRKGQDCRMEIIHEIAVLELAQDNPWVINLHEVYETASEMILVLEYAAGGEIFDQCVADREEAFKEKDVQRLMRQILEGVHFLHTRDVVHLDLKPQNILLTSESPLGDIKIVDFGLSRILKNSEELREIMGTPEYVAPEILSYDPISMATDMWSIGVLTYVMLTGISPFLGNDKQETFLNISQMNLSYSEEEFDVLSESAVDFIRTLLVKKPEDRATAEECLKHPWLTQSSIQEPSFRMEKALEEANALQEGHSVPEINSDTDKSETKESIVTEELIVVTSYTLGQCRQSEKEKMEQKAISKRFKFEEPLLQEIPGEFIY

The target in assay [20] is Cyclin-dependent kinase-like 1 (Homo sapiens) (UniProt Q00532).
Assay [21] has as its target Serine/threonine-protein kinase 16 (Homo sapiens) (UniProt O75716).

Chain of Cyclin-dependent kinase-like 1 (Homo sapiens) (Q00532 whole entry): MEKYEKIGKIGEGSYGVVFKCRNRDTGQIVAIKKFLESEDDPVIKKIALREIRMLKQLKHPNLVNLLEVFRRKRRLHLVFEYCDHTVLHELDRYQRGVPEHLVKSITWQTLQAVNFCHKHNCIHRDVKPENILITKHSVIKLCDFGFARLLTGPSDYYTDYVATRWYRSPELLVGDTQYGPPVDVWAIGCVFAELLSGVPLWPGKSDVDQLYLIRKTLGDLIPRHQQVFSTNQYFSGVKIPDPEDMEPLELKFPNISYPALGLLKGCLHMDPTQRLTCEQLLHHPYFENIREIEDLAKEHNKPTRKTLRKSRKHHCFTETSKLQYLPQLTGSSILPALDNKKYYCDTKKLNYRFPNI
Chain of Casein kinase I isoform gamma-2 (Homo sapiens) (P78368 whole entry, looked up, canonical isoform): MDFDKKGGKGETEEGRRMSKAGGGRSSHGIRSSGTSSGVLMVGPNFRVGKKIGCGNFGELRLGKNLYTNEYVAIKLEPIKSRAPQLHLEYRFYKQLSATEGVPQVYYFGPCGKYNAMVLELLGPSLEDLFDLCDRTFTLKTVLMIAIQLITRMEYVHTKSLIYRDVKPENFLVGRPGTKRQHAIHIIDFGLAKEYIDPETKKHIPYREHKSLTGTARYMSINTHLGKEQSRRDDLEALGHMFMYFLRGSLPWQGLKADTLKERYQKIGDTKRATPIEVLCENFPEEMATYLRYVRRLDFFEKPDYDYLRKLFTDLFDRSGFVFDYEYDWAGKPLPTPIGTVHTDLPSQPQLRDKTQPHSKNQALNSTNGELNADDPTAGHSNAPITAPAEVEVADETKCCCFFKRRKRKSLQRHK
Chain of Calcium/calmodulin-dependent protein kinase type II subunit beta (Homo sapiens) (Q13554 whole entry): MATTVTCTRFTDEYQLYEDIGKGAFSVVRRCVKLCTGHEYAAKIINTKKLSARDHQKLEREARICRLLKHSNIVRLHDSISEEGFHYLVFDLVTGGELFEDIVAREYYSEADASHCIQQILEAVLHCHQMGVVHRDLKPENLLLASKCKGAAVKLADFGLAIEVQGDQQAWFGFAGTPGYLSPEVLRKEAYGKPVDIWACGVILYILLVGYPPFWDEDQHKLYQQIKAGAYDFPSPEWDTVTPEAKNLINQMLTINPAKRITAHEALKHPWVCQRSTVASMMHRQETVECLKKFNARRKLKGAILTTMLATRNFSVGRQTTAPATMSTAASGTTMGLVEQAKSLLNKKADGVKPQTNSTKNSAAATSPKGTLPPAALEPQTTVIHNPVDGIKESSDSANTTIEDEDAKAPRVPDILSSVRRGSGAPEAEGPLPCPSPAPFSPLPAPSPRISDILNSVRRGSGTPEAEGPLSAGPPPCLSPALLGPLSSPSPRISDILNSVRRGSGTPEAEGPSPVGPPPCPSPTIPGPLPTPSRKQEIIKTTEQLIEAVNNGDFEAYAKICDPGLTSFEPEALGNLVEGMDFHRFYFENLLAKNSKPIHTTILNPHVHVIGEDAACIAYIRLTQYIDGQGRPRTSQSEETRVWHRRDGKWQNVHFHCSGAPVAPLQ
Chain of Serine/threonine-protein kinase PAK 6 (Homo sapiens) (Q9NQU5 whole entry, looked up): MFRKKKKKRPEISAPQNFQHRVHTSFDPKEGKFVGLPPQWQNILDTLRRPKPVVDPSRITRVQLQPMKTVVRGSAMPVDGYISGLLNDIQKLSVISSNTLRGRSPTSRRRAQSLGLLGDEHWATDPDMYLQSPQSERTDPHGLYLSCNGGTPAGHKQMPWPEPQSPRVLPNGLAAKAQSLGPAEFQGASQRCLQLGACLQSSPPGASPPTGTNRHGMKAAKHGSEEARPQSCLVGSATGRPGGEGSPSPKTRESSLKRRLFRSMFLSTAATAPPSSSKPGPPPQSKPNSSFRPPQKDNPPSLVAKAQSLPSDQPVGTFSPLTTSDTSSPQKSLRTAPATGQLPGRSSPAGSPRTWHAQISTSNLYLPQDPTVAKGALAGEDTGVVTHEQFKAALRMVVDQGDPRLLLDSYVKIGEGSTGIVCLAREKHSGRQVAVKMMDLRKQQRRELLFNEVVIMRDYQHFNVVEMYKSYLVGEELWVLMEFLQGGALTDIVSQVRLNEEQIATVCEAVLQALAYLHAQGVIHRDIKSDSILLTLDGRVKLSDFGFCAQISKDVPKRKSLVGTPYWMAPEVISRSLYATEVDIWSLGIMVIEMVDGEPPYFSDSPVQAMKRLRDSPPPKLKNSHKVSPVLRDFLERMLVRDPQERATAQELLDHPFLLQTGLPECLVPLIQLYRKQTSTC
Chain of Serine/threonine-protein kinase 26 (Homo sapiens) (Q9P289 2-416 limits assumed): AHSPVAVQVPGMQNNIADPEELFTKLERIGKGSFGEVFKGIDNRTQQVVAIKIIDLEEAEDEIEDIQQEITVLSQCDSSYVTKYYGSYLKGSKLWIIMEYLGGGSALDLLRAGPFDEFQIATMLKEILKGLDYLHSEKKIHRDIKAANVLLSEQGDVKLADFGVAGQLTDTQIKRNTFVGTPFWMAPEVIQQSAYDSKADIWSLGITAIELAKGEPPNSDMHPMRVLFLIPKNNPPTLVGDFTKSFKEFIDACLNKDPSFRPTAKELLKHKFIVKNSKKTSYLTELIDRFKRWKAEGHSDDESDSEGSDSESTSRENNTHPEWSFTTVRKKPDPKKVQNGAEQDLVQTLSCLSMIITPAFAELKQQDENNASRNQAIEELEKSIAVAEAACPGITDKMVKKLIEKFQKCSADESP
Chain of Dual specificity protein kinase CLK2 (Homo sapiens) (P49760 whole entry, looked up): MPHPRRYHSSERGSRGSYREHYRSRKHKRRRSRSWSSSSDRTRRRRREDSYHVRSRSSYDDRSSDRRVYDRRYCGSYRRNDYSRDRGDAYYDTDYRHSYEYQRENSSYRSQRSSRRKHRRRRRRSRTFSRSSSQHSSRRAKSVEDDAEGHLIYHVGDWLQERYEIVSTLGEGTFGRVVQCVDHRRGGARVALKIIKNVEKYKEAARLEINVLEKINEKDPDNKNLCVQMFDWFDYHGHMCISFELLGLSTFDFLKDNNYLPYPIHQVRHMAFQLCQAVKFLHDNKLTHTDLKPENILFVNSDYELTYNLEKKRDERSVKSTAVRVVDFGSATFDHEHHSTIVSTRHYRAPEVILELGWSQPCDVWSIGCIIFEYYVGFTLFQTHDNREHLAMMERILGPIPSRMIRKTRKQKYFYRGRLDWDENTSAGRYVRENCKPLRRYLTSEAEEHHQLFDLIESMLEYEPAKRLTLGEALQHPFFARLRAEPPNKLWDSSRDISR
Chain of Serine/threonine-protein kinase pim-1 (Homo sapiens) (P11309 whole entry, looked up): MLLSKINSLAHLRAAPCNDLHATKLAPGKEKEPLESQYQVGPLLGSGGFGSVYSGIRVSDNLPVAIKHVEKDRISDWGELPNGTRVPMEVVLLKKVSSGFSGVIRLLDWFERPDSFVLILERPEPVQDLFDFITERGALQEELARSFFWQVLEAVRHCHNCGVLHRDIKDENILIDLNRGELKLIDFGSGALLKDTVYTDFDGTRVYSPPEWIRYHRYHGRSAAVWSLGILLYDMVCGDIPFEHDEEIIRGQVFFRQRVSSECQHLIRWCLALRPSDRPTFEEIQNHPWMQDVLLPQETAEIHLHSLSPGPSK
Chain of Ribosomal protein S6 kinase alpha-3 (Homo sapiens) (P51812 whole entry): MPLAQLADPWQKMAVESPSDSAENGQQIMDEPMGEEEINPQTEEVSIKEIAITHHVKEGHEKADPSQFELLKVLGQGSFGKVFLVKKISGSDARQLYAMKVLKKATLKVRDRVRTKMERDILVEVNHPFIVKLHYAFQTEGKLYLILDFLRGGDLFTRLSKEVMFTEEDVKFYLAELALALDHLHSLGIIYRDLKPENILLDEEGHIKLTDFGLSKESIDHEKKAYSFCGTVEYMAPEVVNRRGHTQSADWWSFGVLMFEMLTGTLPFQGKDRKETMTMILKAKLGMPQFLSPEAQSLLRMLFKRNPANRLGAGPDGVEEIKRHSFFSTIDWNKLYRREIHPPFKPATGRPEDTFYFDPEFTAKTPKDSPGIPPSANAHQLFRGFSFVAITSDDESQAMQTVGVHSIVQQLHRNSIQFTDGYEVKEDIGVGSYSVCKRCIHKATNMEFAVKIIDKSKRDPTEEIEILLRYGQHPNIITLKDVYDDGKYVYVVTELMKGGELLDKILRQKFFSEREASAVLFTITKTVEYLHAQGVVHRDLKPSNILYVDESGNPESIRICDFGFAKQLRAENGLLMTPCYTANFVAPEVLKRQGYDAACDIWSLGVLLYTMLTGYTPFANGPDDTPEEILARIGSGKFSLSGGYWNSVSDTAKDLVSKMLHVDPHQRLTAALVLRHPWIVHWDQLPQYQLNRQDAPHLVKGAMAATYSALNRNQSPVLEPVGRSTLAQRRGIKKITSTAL
Chain of Mitogen-activated protein kinase 6 (Homo sapiens) (Q16659 whole entry): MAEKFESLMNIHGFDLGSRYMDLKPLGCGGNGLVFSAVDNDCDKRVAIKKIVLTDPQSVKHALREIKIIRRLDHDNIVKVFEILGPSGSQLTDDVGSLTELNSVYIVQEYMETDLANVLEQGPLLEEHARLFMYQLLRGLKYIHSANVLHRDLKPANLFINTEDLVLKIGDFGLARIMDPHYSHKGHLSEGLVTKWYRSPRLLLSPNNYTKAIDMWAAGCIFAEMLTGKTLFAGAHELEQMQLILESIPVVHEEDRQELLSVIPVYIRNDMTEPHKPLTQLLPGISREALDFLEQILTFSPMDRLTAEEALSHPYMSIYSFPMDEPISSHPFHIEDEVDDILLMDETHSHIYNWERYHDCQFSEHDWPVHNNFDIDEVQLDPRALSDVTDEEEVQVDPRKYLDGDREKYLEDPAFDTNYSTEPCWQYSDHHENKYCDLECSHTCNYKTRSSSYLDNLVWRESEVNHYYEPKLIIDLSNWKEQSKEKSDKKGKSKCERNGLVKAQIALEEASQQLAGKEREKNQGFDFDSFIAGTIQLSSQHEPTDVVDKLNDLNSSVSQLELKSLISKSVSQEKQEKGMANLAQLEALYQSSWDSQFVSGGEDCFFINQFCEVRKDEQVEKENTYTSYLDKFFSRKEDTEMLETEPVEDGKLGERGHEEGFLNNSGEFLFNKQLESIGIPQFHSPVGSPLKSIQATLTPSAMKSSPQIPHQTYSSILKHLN

As for `C=CNC#N`, the ΔTm in assay [1] is 0.7 °C; in assay [2] it was -1.4 °C; in assay [3] it was 1 °C; in assay [4] it was 0.5 °C; in assay [5], 0.4 °C; in assay [6], 1 °C. In addition, the ΔTm in assay [7] was 0.1 °C; in [8], 0.1 °C; in assay [9], -0.2 °C; in assay [10], 0.7 °C; in assay [11], 0.1 °C; in assay [12] it was 0 °C. The ΔTm in assay [13] was determined as 1.2 °C; in assay [14] it was 0.6 °C; in assay [15] it was 0.5 °C; in assay [16], 0.2 °C; in assay [17], 0.3 °C; in assay [18], 0.1 °C. The ΔTm in assay [19] was 0.7 °C; in [20], -0.1 °C; in [21], 0 °C.

Regarding `CCN(CC)CCNC(=O)c1c(C)[nH]c(/C=C2\C(=O)Nc3ccc(Cl)cc32)c1C` [SU-11652], the ΔTm came to 4.3 °C in assay [1]; 3.8 °C in [2]; 6.8 °C in assay [3]; 4.4 °C in assay [4]; 6.3 °C in [5]; 0.8 °C in assay [6]. For the same compound, the ΔTm is 2 °C in [7]; 8.3 °C in assay [8]; 0.9 °C in assay [9]; 5.7 °C in assay [10]; 4 °C in [11]; 2.9 °C in assay [12]. For the same compound, the ΔTm in [13] worked out at 2.8 °C; in assay [14] it was 5.8 °C; in assay [15], 3.8 °C; in assay [16] it was 0.7 °C; in [17], 2.3 °C; in assay [18], 2.9 °C. Besides, the ΔTm in assay [19] is 11 °C; in [20], 0.2 °C; in assay [21], 6 °C.

Take `O=c1c(O)c(-c2ccc(O)c(O)c2)oc2cc(O)cc(O)c12` [QUERCETIN]: the ΔTm in assay [1] is 3.2 °C; in [2], 4.4 °C; in assay [3] it was 6.6 °C; in assay [4], 1.1 °C; in assay [5], 3.4 °C; in [6] it was 0.8 °C. The shift in melting temperature (ΔTm) in assay [7] turned out to be 1.9 °C; in assay [8] it was 3.3 °C; in assay [9], 5.3 °C; in assay [10], 4.1 °C; in assay [11], 2.4 °C; in [12] it was 7.4 °C. The ΔTm in [13] stood at 2.9 °C; in assay [14] it was 4.9 °C; in [15], 7.8 °C; in assay [16], 2.7 °C; in assay [17] it was 8.6 °C; in assay [18], 8.1 °C. The ΔTm is 9.3 °C in assay [19], 1.6 °C in [20] and 4.8 °C in assay [21].

On to `CC(=O)O/N=C1/C(=C2/C(=O)Nc3cc(Br)ccc32)Nc2ccccc21` [6-BROMOINDIRUBIN-3'-ACETOXIME], for which the ΔTm in assay [1] was 0.6 °C; in assay [2], -0.4 °C; in [3], 4.5 °C; in [4] it was 0.3 °C; in assay [5], -0.2 °C; in assay [6], 0.3 °C. Further, the ΔTm was 2.8 °C in [7]; 0.4 °C in assay [8]; 3.2 °C in [9]; 0.9 °C in assay [10]; 0.5 °C in [11]; -1.1 °C in assay [12]. The ΔTm in assay [13] is 0.9 °C; in assay [14], 2.3 °C; in assay [15] it was 9.4 °C; in [16] it was 0.6 °C; in [17], -1.4 °C; in [18] it was -0.2 °C. The ΔTm stood at 3 °C in assay [19], 3.2 °C in assay [20] and 1.7 °C in [21].

For the compound `O=C1C(Cl)=C(N2C(=O)CCC2=O)C(=O)c2ccccc21`, the thermal shift (ΔTm) in assay [1] is 0.7 °C; in [2], -1.4 °C; in [3], -2.4 °C; in [4] it was -5 °C; in assay [5], -1.1 °C; in assay [6], -1.1 °C. Also, the ΔTm is 1.6 °C in assay [7]; -2.4 °C in assay [8]; -1.1 °C in assay [9]; 3.4 °C in [10]; 0.1 °C in assay [11]; -1.4 °C in [12]. Further, the ΔTm was -1.5 °C in assay [13]; -1.3 °C in assay [14]; -3.5 °C in assay [15]; -0.3 °C in [16]; -4.1 °C in assay [17]; 0.9 °C in assay [18]. Besides, the figures for the ΔTm in [19], in assay [20] and in assay [21] were 0.5 °C, -0.5 °C and -0.1 °C, respectively.

For `N#C/C(=C(/N)Sc1ccc(N)cc1)c1ccccc1C(F)(F)F`, the ΔTm in [1] is 0.5 °C; in assay [2], 1.1 °C; in [3], -0.1 °C; in assay [4] it was 0.4 °C; in [5] it was -0.1 °C; in [6], 0.4 °C. Besides, the ΔTm is 0.3 °C in [7]; -0.1 °C in [8]; 0.4 °C in assay [9]; 0.6 °C in assay [10]; 0.3 °C in [11]; 0.5 °C in assay [12]. Also, the ΔTm was 0.5 °C in assay [13]; 0 °C in assay [14]; -0.1 °C in assay [15]; 0.1 °C in [16]; 0.2 °C in [17]; -0.2 °C in assay [18]. Moreover, the values for the ΔTm in [19], in [20] and in assay [21] were 0.4 °C, -0.2 °C and 0.2 °C, respectively.

The values are drawn from ChEMBL document CHEMBL1145498, “A systematic interaction map of validated kinase inhibitors with Ser/Thr kinases” (Proc Natl Acad Sci U S A, 2007).
